In US20250049914A1, “STEROID ACID-PEPTIDE BASED INTRACELLULAR CARGO DELIVERY” (DEFENCE THERAPEUTICS INC., priority 2021, published 2025):
Where no end group is shown, it is not given here.

Experiments:
WT MSCs = assay: Antigen cross-presentation assay on wild-type MSCs with B3Z cells; type: cell-based, mouse
Procedure: In order to generate Bone marrow (BM)-derived mouse MSCs, the femurs of 6-8-week-old female Balb/c or C57BL/6 mice were isolated and flushed with Alpha Modification of Eagle's Medium (AMEM) supplemented with 10% FBS and 50 U/mL Penicillin-Streptomycin in a 10 cm cell culture dish, then incubated at 37° C. Two days later, non-adherent cells were removed and the media replaced every 3 to 4 days until plastic-adherent cells reached 80% confluency. The generated cells were detached using 0.05% trypsin and expanded until a uniform MSC population was obtained. The generated MSCs were validated for their innate phenotype by flow-cytometry for the expression of CD44, CD45, CD73, and CD90. The cells were frozen in liquid nitrogen until use.
To assess cross-presentation assay, 25×10^3 cells MSCs were seeded per well in 24-well plate then pulsed with steroid acid peptide-conjugated for 6 h admixed with OVA. At the end of the pulsing period, the cells were washed to remove excess antigen then 5×10^4 B3Z cells. The cells were incubated for 17-19 hours prior to their lysis and incubation for another 4-6 hours at 37° C. with a CPRG solution. The optical density signal was detected at wavelength 570 using a SynergyH1™ microplate reader (Biotek, Winooski, VT, United States).
To determine whether a similar effect occurs in wild type (WT) (i.e., non-engineered) MSCs, BM-derived MSCs (Example 1) were used instead in the same cross presentation assay with B3Z responder cells.

cpMSCs = assay: OVA-DQ processing in cpMSCs, flow cytometry; type: cell-based; conditions: various molar ratios
Procedure: For this experiment, a cross-presenting mesenchymal stromal cell line (cpMSC) was used as the antigen presenting cells, which were pulsed with DQ™ Ovalbumin (i.e., OVADQ). OVADQ fluorescence was measured by flow cytometry. Different ratios of CA (NLS1 RSP17 [FIG. 17A]; NLS3 RPS17 [FIG. 17B]; and PQBP-1 [FIG. 17C] to antigen (CA: OVA=22:1, 12:1, 8:1, 4:1, and 2:1) were tested (hnRNPA1 M9 NLS at 2:1).
To further dissect the effect of bile acid peptide conjugates on antigen presentation, antigen internalization and processing were evaluated. cpMSCs were pulsed with OVA-labelled with AF647 in the presence of various molar ratios of different bile acid peptide conjugates, NLS1-RPS17 [FIG. 16A]; NLS3 RPS17 [FIG. 16B]; PQBP-1 [FIG. 16C]; and hnRNPA1 M9 NLS [FIG. 6]) and fluorescence was assessed by flow cytometry. […] OVA processing was assessed by pulsing cpMSCs with DQ™-Ovalbumin (OVA-DQ) in the presence of the same bile acid peptide conjugates as in FIGS. 6 and 16.

human WT MSCs = assay: OVA processing by human MSCs, flow cytometry; type: cell-based; conditions: CA-hnRNPA1-treated human MSCs
MSCs [1] = assay: Endosomal escape, apoptosis assay with recombinant cytochrome C; type: cell-based, mouse; conditions: CA-hnRNPA1 50 μM, 6 h
Procedure: Endosomal leakage was assessed using an apoptosis assay. Briefly, 10′ MSCs were first supplemented with 10 mg/mL of exogenous rCyt-C for 6 h at 37° C. in the presence or absence of CA-hnRNPA1 (50 μM). Once the incubation period completed, the cells were collected using Accutase®, washed with ice cold PBS, then stained for Annexin-V according to manufacturer's instructions prior to analysis using BD FACS Diva™ on CANTOII™.

MSCs [2] = assay: Cytokine and chemokine analysis (Luminex); type: cell-based, mouse; conditions: 50 μM CA-hnRNPA1, 6 h
Procedure: For cytokine and chemokine profiling, 15 cm cell culture dishes containing 80-90% confluent MSCs were grown in serum-free AMEM for 24 h at 37° C. and 5% CO2. MSCs were then treated with 50 μM of CA-hnRNPA1 in serum-free AMEM for 6 h. The supernatant was collected and fresh serum-free AMEM was replenished, without CA-hnRNPA1. After 24 h of the initial CA-hnRNPA1 treatment, the supernatant was collected and gathered with the previous one collected. Collected supernatants were then concentrated using the Amicon Ultra-4™ centrifugal filters (3000 NMWL) for 1 h at 4° C. Collected concentrates (80×) were then frozen at −80° C. until shipped to EveTechnologies™ (Calgary, AB, Canada) for cytokine/chemokine assessment by […].

Substance: CA-hnRNPA1: cholic acid conjugated to hnRNPA1 M9 NLS peptide CSNFGPMKGGNFGGRSSGPY (SEQ ID NO: 4) (not fully specified (N-terminus); also: cholic acid conjugate, site not given here)
- antigen cross-presentation with conjugate diluted in PBS or H2O (WT MSCs; WT MSCs): enhancement
- OVA cross presentation by WT MSCs (B3Z) (WT MSCs; WT MSCs pulsed with OVA with or without conjugate): significantly enhanced
- OVA processing (OVA-DQ fluorescence) (cpMSCs): enhance OVA processing
- OVA processing by human MSCs (human WT MSCs): increase of OVA processing
- endosomal membrane damage (co-treatment with recombinant cytochrome C) (MSCs [1]): endosomal membrane damaging properties
- cytokine levels (Luminex) (MSCs [2]): increases in various cytokines
